The record followed here is a melting point compilation (Tetko et al.; mined from patent text by program, amines drawn as free bases though some values may be those of a salt).

For `Nc1cccc(-c2ccc(C3CCN(Cc4ccc5c(c4)OCO5)CC3)cc2)n1`, the melting point was in the range of 150 to 165 °C.

`Oc1cc(OCc2ccccc2)cc(OCc2ccccc2)c1C/C=C/c1ccccc1` came in with a melting point of 76 to 78 °C.

`O=CNNc1ccc(NC(=S)NCc2ccccc2)cc1` showed a melting point of 152 to 154 °C.

On to `O=C(O)CCCC/C=C(/c1cccnc1)c1cccs1`, for which the melting point lay in the range of 84 to 85 °C.

`Cc1ccc(S(=O)(=O)OCC2Cc3cccc(-c4ccccc4C)c3O2)cc1` (stereo unspecified) showed a melting point of 98 to 100 °C.

`Nc1ccc(C(O)(C(F)(F)F)C(F)(F)F)cc1O` displayed a melting point of 168 to 170 °C.

In the case of `C(=C\c1cc(/C=C/c2ccc3cc[nH]c3c2)[nH]n1)/c1ccc(N2CCCCC2)cc1`, the melting point was 189 to 191 °C.

For `O=C1c2ccccc2C(=O)N1CCCOc1cccc(CN2CCOCC2)c1`, the melting point was in the range of 90 to 93 °C.

`Nc1cc(SC(F)(F)F)cc(Br)c1N` had a melting point of 60 to 61 °C.

Consider `N#CNc1ccccc1N1CCOCC1`, for which the melting point was 175 to 176 °C.

In the case of `Cn1c(C(F)(F)F)cc(=O)n(-c2ccc3snc(C(C)(C)C(N)=O)c3c2)c1=O`, the melting point was in the range of 192 to 196 °C.

For the compound `CC(C)n1nc(-c2cc(C(=O)NCc3ccccn3)cnc2-c2ccccc2)ccc1=O`, the melting point lay in the range of 193 to 194 °C.

For `Nc1ncc2c(n1)-c1ccccc1C(c1ccc(Cl)c(Cl)c1)C2` (stereo unspecified), the melting point is 159 to 160 °C.

For `Cc1cc(C)c(Nc2nc(C)ccc2S(=O)(=O)c2ccc(C(=O)c3ccccc3)cc2)c(C)c1`, the melting point was in the range of 222 to 225 °C.

For `CC1CC2C3CCC4=CC(=O)C=CC4(C)C34OC4CC2(C)C1(O)C(=O)CO` (stereo unspecified), the melting point lay in the range of 238 to 240 °C.

Consider `CC(=O)SCCC(=O)N1N=C(c2ccc(S(N)(=O)=O)cc2)CC1C(=O)O` (stereo unspecified), for which the melting point lay in the range of 183 to 185 °C.

In the case of `N#CC(=CNc1ccccc1)Cc1ccc2ccccc2c1`, the melting point was in the range of 148 to 153 °C.

`O=C1c2c(O)ccc(O)c2-c2nn(CCCNCCO)c3ccc(NCCNCCO)c1c23`: the melting point lay in the range of 159 to 163 °C.

`CC(C)Cn1nc(OCCCCc2ccc(OC(C)C)cc2Oc2ncc(C(F)(F)F)cc2Cl)cc1CCC(=O)O` displayed a melting point of 122 to 123 °C.

Regarding `O=C1NCCOC1C(O)c1ccccc1` (stereo unspecified), the melting point lay within 130 to 140 °C.

In turn, `O=C(NC(=O)c1c(F)cccc1F)Nc1cc(Cl)c(Oc2ccc(Cl)c3ccccc23)c(Cl)c1` had a melting point of 237 to 239 °C.

Consider `COc1cc(-c2oc3c(OC)cc(/C=C/CO)cc3c2C)ccc1O`, for which the melting point fell in the range of 180 to 183 °C.

Take `CC(O)(CCC#N)c1ccc(-c2ccc(F)cc2)cc1` (stereo unspecified): the melting point lay within 118 to 120 °C.

Compound `Cc1nc(F)c(S(C)(=O)=O)c(F)n1` gave a melting point of 120 to 123 °C.

Consider `COc1ccc(C(=O)N2C(=O)CCC2CCC(=O)OCc2ccccc2)cc1` (stereo unspecified), for which the melting point lay in the range of 80 to 83 °C.

The compound `COc1cc(Cl)ccc1NC(=O)C1CCCn2c1nc(-c1ccncn1)cc2=O` (stereo unspecified) gave a melting point of 251 to 253 °C.

Compound `N#Cc1c(Br)[nH]c(Br)c1Br` showed a melting point of 151 to 152 °C.

For `CCOC(=O)CC12CC(c3ccccc31)c1ccccc12`, the melting point was in the range of 81 to 84 °C.

As for `O=C(CCCl)N(c1ccccc1)C1CCCc2ccccc21` (stereo unspecified), the melting point was 78 to 81 °C.

On to `CCOC(=O)N1CCC(n2nnnc2CCC(C)Oc2ccc3nc4[nH]c(=O)[nH]c4cc3c2)CC1` (stereo unspecified), for which the melting point was in the range of 233 to 236 °C.

In the case of `Cc1ccc(N2CCN(CCC3CN(C)C(=O)O3)CC2)cc1C` (stereo unspecified), the melting point is 96 to 97 °C.

Take `CSc1ccc(/C(=C/CO)c2ccc(I)cc2)cc1`: the melting point lay in the range of 91 to 95 °C.

`CC(C#Cc1cccc(OCc2ccccc2)c1)N(O)C(N)=O` (stereo unspecified) had a melting point of 151 to 153 °C.

On to `[N-]=[N+]=NC1CC(n2cnc3c(NC4CC4c4ccccc4)nc(N)nc32)OC1CO` (stereo unspecified), for which the melting point fell in the range of 65 to 70 °C.

As to `CCCC(=O)N(C)c1cccc(-c2ccc3nnc(C)n3n2)c1`, the melting point was 140 to 143 °C.

As for `COc1cccnc1CSCCNC(=C[N+](=O)[O-])SC`, the melting point lay in the range of 87.5 to 88.5 °C.
